# Tests used:
# ruminal microorganisms = assay: Effect of cobalt on methane, pH, ammonia-N, and digestibility in continuous cultures of ruminal microorganisms (Table 10); assay type: cell-based; conditions: for IVDMTD (in vitro dry matter true digestibility), %: 24 h incubation; for Culture pH, Post-feeding / Methane, nmol/ml, Post-feeding: average of samples at 1, 2, 4 and 6 h after AM feeding; for Culture pH, Pre-feeding / Methane, nmol/ml, Pre-feeding: samples taken at 0 hours
# Experimental: Ammonia-N concentrations were not affected (P>0.10) by dietary treatments. […] There was a source x level interaction (P<0.001) for neutral detergent fiber (NDF) digestibility (Table 6). […] Earlier studies reported no effect on DM and NDF digestibility when Co was added at the 5.0 or 10.0 ppm levels.
# Food Plot Clover Mix = assay: Greenhouse flats, plant growth (sprouts, harvest weight, % of control): Food Plot Clover Mix, Flats 1-16 (Tables 2, 3); assay type: in vivo, mixture of clovers; conditions: Flat 13, Clover Mix 5.2 g seed/flat
# Experimental: (§1) Sixty-four sample flats were analyzed. Empty flats were filled with about 0.25 cubic feet of Miracle Gro Soil per flat (a complete soil with enough macro-nutrients, nitrogen, phosphorus and potash to feed the plants for 3-4 months). The seeds were planted and then the seeded soil treated. Flats were watered daily. Progress was documented weekly. This number of flats resulted from running a number of positive controls and several levels of the chelated cobalt lactate per plant selection or choice.
# (§2) The makeup of 64 flats was 8 sections times 8 flats per section. The first 8 flats were planted with a mixture of clovers. Flats 9-16 were also planted with the clover mixture at 5.2 grams seed/flat versus 2.6 grams seed/flat in 1-8. Flats 17-24 were planted with Fast & Fine Seed at 2.6 grams/flat, equivalent to the seeding rate from 2008. Fast & Fine Premium Grass Seed is a commercial mixture of Indy Perennial Ryegrass, Silver Dollar Perennial Ryegrass, Boreal Creeping Red Fescue, Kelly Kentucky Bluegrass and Clearwater Kentucky Bluegrass. Flats 25-32 were planted with a mixture including green globe turnips, dwarf Essex forage rapeseed, Rangi forage and giant rapeseed. Flats 33-40 were planted with a mixture of seeds including hybrid sunflower, grain sorghum, Proso millet and buck-wheat, at 5.2 grams/flat. […]
# grass = assay: Growth of grass with cobalt lactate applied in the soil or sprayed (Example 1, Table 1); assay type: in vivo
# Description: In Table 1, the growth of grass when cobalt lactate was applied either in the soil (before seeding) or sprayed directly onto the grass once growing is shown for the various levels of cobalt (0, 1, 10, 100 and 1000 ppm) that was applied. Following growth 2, cuttings were made then the total weight of grass was shown for the various treatments. […] All work was done with a fully complete soil with respect to nitrogen, phosphorus and potash (Miracle Gro Soil), so that the only difference in the greenhouse flats was the applied cobalt level and the manner in which it was applied.
# [1] = tested on: Fast & Fine Premium Grass Seed; assay: Greenhouse flats, plant growth: Fast & Fine Grass seed, Flats 17-24 (Table 4); assay type: in vivo, Perennial Ryegrass, Creeping Red Fescue, Kentucky Bluegrass; conditions: 1 ppm applied to the soil; second year
# Experimental: as §1, §2
# [2] = Cobalt Medium DI H2O (spray), Target Cobalt Level 1 ppm
# [3] = Cobalt Medium DI H2O (spray), Target Cobalt Level 10 ppm
# [4] = Cobalt Medium DI H2O (spray), Target Cobalt Level 100 ppm
# [5] = Cobalt Medium DI H2O (spray), Target Cobalt Level 1000 ppm
# [6] = Cobalt Medium Soil, Target Cobalt Level 1 ppm
# [7] = Cobalt Medium Soil, Target Cobalt Level 10 ppm
# [8] = Cobalt Medium Soil, Target Cobalt Level 100 ppm
# [9] = Cobalt Medium Soil, Target Cobalt Level 1000 ppm
smiles,measurement,setting,value
"O=C([O-])[O-].[Co+2] [Cobalt Carbonate, cobalt carbonate]",Ammonia-N,ruminal microorganisms; 0.2 ppm,10.79 mg/dL
same,"NDF Digestibility, %",ruminal microorganisms; 0.2 ppm,23.16%
same,"IVDMTD (in vitro dry matter true digestibility), %",ruminal microorganisms; 0.2 ppm,59.35%
same,"Culture pH, Post-feeding",ruminal microorganisms; 0.2 ppm,5.56
same,"Methane, nmol/ml, Post-feeding",ruminal microorganisms; 0.2 ppm,403.14 nmol/mL
same,"Culture pH, Pre-feeding",ruminal microorganisms; 0.2 ppm,5.81
same,"Methane, nmol/ml, Pre-feeding",ruminal microorganisms; 0.2 ppm,363.91 nmol/mL
same,Ammonia-N,ruminal microorganisms; 1.0 ppm,10.88 mg/dL
same,"NDF Digestibility, %",ruminal microorganisms; 1.0 ppm,17.09%
same,Effect on NDF digestibility,ruminal microorganisms; 1.0 ppm level,negative effect
same,"IVDMTD (in vitro dry matter true digestibility), %",ruminal microorganisms; 1.0 ppm,59.17%
same,"Culture pH, Post-feeding",ruminal microorganisms; 1.0 ppm,5.55
same,"Methane, nmol/ml, Post-feeding",ruminal microorganisms; 1.0 ppm,515.35 nmol/mL
same,"Culture pH, Pre-feeding",ruminal microorganisms; 1.0 ppm,5.88
same,"Methane, nmol/ml, Pre-feeding",ruminal microorganisms; 1.0 ppm,347.82 nmol/mL
same,Effect on methane concentration,"ruminal microorganisms; continuous cultures, P>0.10 for no effect",significant negative impact
CC(O)C(=O)[O-].CC(O)C(=O)[O-].[Co+2] (stereo not shown) [cobalt lactate],Growth ahead of the positive control (Delt Ag),Food Plot Clover Mix,13%
same,"Grass Cuttings Weight (gms, 1st)",grass; [2],15.7 gms
same,"Grass Cuttings Weight (gms, 2nd)",grass; [2],13.9 gms
same,"Sum Grass Cuttings Weight (gms, 1st + 2nd)",grass; [2],29.6 gms
same,"Grass Cuttings Weight (gms, 1st)",grass; [3],17.76 gms
same,"Grass Cuttings Weight (gms, 2nd)",grass; [3],14.37 gms
same,"Sum Grass Cuttings Weight (gms, 1st + 2nd)",grass; [3],32.13 gms
same,"Grass Cuttings Weight (gms, 1st)",grass; [4],18.56 gms
same,"Grass Cuttings Weight (gms, 2nd)",grass; [4],26.57 gms
same,"Sum Grass Cuttings Weight (gms, 1st + 2nd)",grass; [4],45.13 gms
same,"Grass Cuttings Weight (gms, 1st)",grass; [5],24.03 gms
same,"Grass Cuttings Weight (gms, 2nd)",grass; [5],15.44 gms
same,"Sum Grass Cuttings Weight (gms, 1st + 2nd)",grass; [5],39.47 gms
same,"Grass Cuttings Weight (gms, 1st)",grass; [6],31.06 gms
same,"Grass Cuttings Weight (gms, 2nd)",grass; [6],22.73 gms
same,"Sum Grass Cuttings Weight (gms, 1st + 2nd)",grass; [6],53.79 gms
same,"Grass Cuttings Weight (gms, 1st)",grass; [7],22.8 gms
same,"Grass Cuttings Weight (gms, 2nd)",grass; [7],31.41 gms
same,"Sum Grass Cuttings Weight (gms, 1st + 2nd)",grass; [7],54.21 gms
same,"Grass Cuttings Weight (gms, 1st)",grass; [8],16.33 gms
same,"Grass Cuttings Weight (gms, 2nd)",grass; [8],10.12 gms
same,"Sum Grass Cuttings Weight (gms, 1st + 2nd)",grass; [8],26.45 gms
same,"Grass Cuttings Weight (gms, 1st)",grass; [9],5.15 gms
same,"Grass Cuttings Weight (gms, 2nd)",grass; [9],1.81 gms
same,"Sum Grass Cuttings Weight (gms, 1st + 2nd)",grass; [9],6.96 gms
same,Growth of grass,grass; applied in the soil at 1 or 10 ppm or applied by spray at 100 ppm,roughly doubled
same,Grass growth,[1],double the grass growth
